How the values were obtained:
Sarcoma 180 cells [1] = test: Antitumor action, intraperitoneal Sarcoma 180 in mice, life-span and survivors; assay type: in vivo; settings: ICR mice, 1 x 10⁵ Sarcoma 180 cells i.p.; for Life-span prolonggation ratio (T/C,%): 0.33 mg/mouse i.p. three times (1 hour, 1 day, 2 days after inoculation), calculated only on died mice; for 60th day number of survivors/number of mice tested: 0.33 mg/mouse i.p. three times, 60th day after the initiation of the test
Method: ICR mice (a group consisting of 5 mice) were inoculated intraperitoneally with 1 x 10⁵ Sarcoma 180 cells per mouse. Then, 0.33 mg/mouse of a compound dissolved in physiological saline was intraperitoneally administered three times, i.e. 1 hour, 1 day and 2 days after the inoculation. Shown in Table 2 are the lifespan prolongation ratio against the control group without treatment and the number of surviving mice on the 60th day after the initiation of the test.

[2] = tested on: HL-60 cells (myelogenous leukemia cell lines); test: Inhibition of multiplication of HL-60 cells ([3H]thymidine incorporation); assay type: cell-based; settings: Homo sapiens; HL-60 cells 2 x 10⁵cells/mℓ in GIT medium; 20 hours incubation then 4 hours with [³H]thymidine; 50% of the control group; read-out: Inhibition of Propagation of HL-60 cells(IC₅₀ : µg/mℓ)
Method: The effect of the compound of this invention in inhibiting multiplication of myelogenous leukemia cells (HL-60) is shown in Table 1. The assay was conducted as follows. HL-60 cells (myelogenous leukemia cell lines) were suspended (2 x 10⁵cells/mℓ) in a GIT culture medium (Wako Pure Chemical Industries, Ltd.). Each hole of a 96-hole Microwell plate was inoculated with 0.2 mℓ of the suspension. The plate was incubated statically for 20 hours (37°C and 5% CO₂), to which was added 1 µCi of [³H]thymidine(5 Ci/mmol.), and the incubation was continued for further 4 hours. For determination of the amount of thymidine incorporated into cells, acid-insoluble fractions were collected with a glass-filter, and the radioactivity was determined by means of a liquid scintillation counter. The concentration of the drug required for reducing the radioactivity incorporated into cells to 50% of the control group was assumed to be IC₅₀ value of the compound.

MM46 cells = test: Antitumor action, intraperitoneal MM46 in mice, life-span and survivors; assay type: in vivo; settings: C3H/He mice, 1 x 10⁴ MM46 cells i.p.; 0.25 mg/mouse for 4 consecutive days from the second day after inoculation; 60th day after inoculation
Method: C3H/He mice (a group consisting of 5 mice) were inoculated intraperitoneally with 1 x 10⁴ MM46 cells per mouse, and given 0.25 mg/mouse of a drug for 4 consecutive days starting from the second day after the inoculation. Shown in Table 3 are the life-span prolongation ratio against the control group without treatment (provided that calculation was made on mice whose survival days were not longer than 60 days) and the number of surviving mice on the 60th day after the inoculation of MM46 cells.

Sarcoma 180 cells [3] = test: Antitumor action, subcutaneous Sarcoma 180 in mice, oral dosing, tumor weight; assay type: in vivo; settings: ICR mice, 1 x 10⁵ Sarcoma 180 cells in dorsal subcutis; 0.3 mg/mouse orally 9 times from the 8th day; tumor weighed on the 21st day
Method: ICR mice (a group consisting of 6 mice) were inoculated with 1 x 10⁵ Sarcoma 180 cells per mouse in the dorsal subcutis, and then 0.3 mg/mouse of a test compound dissolved in physiological saline was orally administered 9 times starting from the 8th day (8th to 10th, 13th to 17th and 20th days). On the 21st day, a tumor was enucleated, and the weight of the tumor was measured. The ratio of tumor weight of the treated group against that of the control group without treatment by drug is shown in Table 4.

IC50 [2] [µg/mL] | Compound | Life-span prolonggation ratio (T/C,%) (Sarcoma 180 cells [1]) [%] | 60th day number of survivors/number of mice tested (Sarcoma 180 cells [1]) | 60th day No. of survivors/No. of mice tested (MM46 cells) | Weight of tumor (T/C,%) (Sarcoma 180 cells [3]) [%]
1.25 | CCCCCCCCCCCCCCCCCCOCCCOCCC[N+](C)(C)C.[Br-] [Compound of Working Example 4, 3-[3-(octadecyloxy)propoxy]propyl-N,N,N-trimethylammonium bromide] |  |  |  | 
5 | CCCCCCCCCCCCCCCCCCOCCCOCCCCCCCC[N+](C)(C)C.[Cl-] [Compound of Working Example 5, N-[8-[3-(octadecyloxy)propoxy]octyl]N,N,N-trimethylammonium chloride] |  |  |  | 
2.5 | CCCCCCCCCCCCCCCCCCOCCCOCCCCC[N+](C)(C)C.[Cl-] [Compound of Working Example 7, N-[5-[3-(octadecyloxy)propoxy]pentyl]N,N,N-trimethylammonium chloride] |  |  |  | 
1.25 | CCCCCCCCCCCCCCCCCCOCCCOCCCCC[n+]1ccccc1.[Cl-] [Compound of Working Example 8, N-[5-[3-(octadecyloxy)propoxy]pentyl]pyridinium chloride] |  |  |  | 

Compound | IC50 [2] [µg/mL] | Life-span prolonggation ratio (T/C,%) (Sarcoma 180 cells [1]) [%] | 60th day number of survivors/number of mice tested (Sarcoma 180 cells [1]) | 60th day No. of survivors/No. of mice tested (MM46 cells) | Weight of tumor (T/C,%) (Sarcoma 180 cells [3]) [%]
CCCCCCCCCCCCCCCCCCOCCCOCCCC[N+](C)(C)C.CS(=O)(=O)[O-] [Compound of Working Example 1, N-[4-[3-(octadecyloxy)propoxy]butyl]N,N,N-trimethylammonium methanesulfonate] | 1.25 | 295 | 2/5 | 5/5 | 
CCCCCCCCCCCCCCCCCCOCCCOCCCC[n+]1ccccc1.CS(=O)(=O)[O-] [Compound of Working Example 2, N-[4-[3-(octadecyloxy)propoxy]butyl]pyridinium methanesulfonate] | 0.62 |  |  |  | 
CCCCCCCCCCCCCCCCCCOCCCOCCCCCC[N+](C)(C)C.[Br-] [Compound of Working Example 3, 6-[3-(octadecyloxy)propoxy]hexyl-N,N,N-trimethylammonium bromide] | 1.25 | 342 | 2/5 |  | 24

Reference: patent EP0304244A2, “Propanediol derivatives, their production and use” (Takeda Chemical Industries, Ltd., priority 1987, dated 1989)
